Data set [1] is described as follows: Phase Ib ascending dose study of pomalidomide (MTD). In kind it is in vivo. Conditions: 45 relapsed and refractory multiple myeloma patients. The procedure: M-protein measurements entered from data with pomalidomide in relapsed and refractory multiple myeloma patients consists of one completed and two ongoing studies. In a Phase Ib ascending dose study in 45 patients, the MTD of pomalidomide was 2 mg administered daily or 5 mg administered on an every other day schedule. These subjects tolerated alternate day dosing better than daily dosing based on dose-limiting toxicity (DLT), however, the AE profiles were similar for both dosing regimens.

Another data set deals with serum M-protein. The data set can be described thus: Tumor growth inhibition (TGI) model for pomalidomide single agent fitted to serum M-protein data, Phase I/II pomalidomide study. In kind it is in vivo, patients. The conditions noted are these: population estimate. As to the method: The Phase I segment investigates whether pomalidomide single agent dose could be escalated up to 5 mg daily using the cyclic schedule. The Phase II segment has progression free survival (PFS) as the primary endpoint and an interim analysis is planned at 50% of the events.
A semi-mechanistic exposure-driven tumor growth inhibition (TGI) model was used to model serum M-protein data (taken as a marker of tumor size) as function of time and drug dose levels. The TGI model is described by the following differential equation system: […]
where y(t) is the at time t with y0 value at baseline (g/L),
KL, is the rate of M-protein level increase (tumor growth rate) (week^−1),
KD, is the rate of drug-induced M-protein decrease (drug potency, mg^−1.week^−1)
KD decreases with time (from KD,0 at time 0, full effect) with the rate constant λ, (week^−1)
D (t) is the amount of drug at the site of action (mg) (“KPD model”) (see Jacqim et al., J. Pharmacokinet. Pharmacodyn. (2007), 31: 57-85),
Kp is the elimination rate constant from the virtual biophase compartment (week^−1).
Model parameters were estimated by maximum likelihood in non-linear mixed effect model using NONMEM VI level 1.0 FOCE method with interaction (Beal et al., NONMEM user's guide. (1992) San Francisco: University of California at San Francisco NONMEM Project Group). […]

For data set [2] the following is noted: compared with the racemic mixture; cited from earlier work.

Results on 2 compounds are retold here after patent US20140106390A1, “BIOMARKERS FOR THE TREATMENT OF MULTIPLE MYELOMA” (CELGENE CORPORATION, priority 2011, published 2014).

The structures appear in SMILES notation.

Turning to `Nc1cccc2c1C(=O)N(C1CCC(=O)NC1=O)C2=O` (centres unmarked) [pomalidomide, 4-amino-2-(2,6-dioxopiperidin-3-yl)isoindole-1,3-dione], the MTD in data set [1] (administered daily) stood at 2 mg; in data set [1] (administered on an every other day schedule) it was 5 mg. Moreover, the “λ, rate constant of decrease of KD with time (resistance appearance), estimate” value in the data set with serum M-protein is recorded as 0.128 wk^−1. For the same compound, the “KL, rate of M-protein level increase (tumor growth rate), estimate” value in the data set on serum M-protein (37 patients) is 0.036 wk^−1.

Consider `Nc1cccc2c1C(=O)N([C@H]1CCC(=O)NC1=O)C2=O` [(S)-isomer of 4-(amino)-2-(2,6-dioxo(3-piperidyl))-isoindoline-1,3-dione, (S)-4-(amino)-2-(2,6-dioxo(3-piperidyl))-isoindoline-1,3-dione], for which the potency entry in data set [2] is “higher potency than the racemic mixture”.
